# In US12486253B2, “Therapeutics for the degradation of mutant BRAF” (C4 THERAPEUTICS, INC., priority 2021, dated 2025):
# Where two headings read alike, the source gives them in different places.
# Target: BRAF V600E (Homo sapiens, UniProt P15056, V600E)
# Assay: HiBiT cellular BRAF^V600E degradation assay
# Assay type: cell-based
# Conditions: for DC50: concentration at which 50% of total cellular BRAF^V600E is degraded; for Emax: read-out: HiBit 24 h Emax
# [1] = A375.10 cells, 24 h, residual protein remaining in the cell
# Chain of BRAF V600E (P15056 whole entry V600E): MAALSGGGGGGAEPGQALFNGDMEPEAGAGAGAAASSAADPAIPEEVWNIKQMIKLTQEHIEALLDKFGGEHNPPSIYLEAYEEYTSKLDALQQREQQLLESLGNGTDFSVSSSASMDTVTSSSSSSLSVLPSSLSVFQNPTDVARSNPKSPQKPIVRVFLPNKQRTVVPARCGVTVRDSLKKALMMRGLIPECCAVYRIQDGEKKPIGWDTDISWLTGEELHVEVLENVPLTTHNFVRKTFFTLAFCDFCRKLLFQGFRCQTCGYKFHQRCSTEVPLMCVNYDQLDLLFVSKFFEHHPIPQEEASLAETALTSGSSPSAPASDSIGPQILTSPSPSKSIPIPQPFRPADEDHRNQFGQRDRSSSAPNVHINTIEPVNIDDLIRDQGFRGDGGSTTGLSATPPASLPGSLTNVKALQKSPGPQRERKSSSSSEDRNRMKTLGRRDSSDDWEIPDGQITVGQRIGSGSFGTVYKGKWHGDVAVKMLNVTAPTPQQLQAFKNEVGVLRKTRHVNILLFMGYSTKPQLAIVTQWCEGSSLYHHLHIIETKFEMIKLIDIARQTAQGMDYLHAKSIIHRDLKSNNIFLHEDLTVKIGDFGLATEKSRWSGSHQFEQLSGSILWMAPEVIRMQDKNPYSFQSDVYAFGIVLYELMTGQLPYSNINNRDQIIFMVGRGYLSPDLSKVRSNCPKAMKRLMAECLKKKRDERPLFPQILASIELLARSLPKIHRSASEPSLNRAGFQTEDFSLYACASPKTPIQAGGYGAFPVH
Compound,"DC50 (A375.10 cells, 24 h) [nM]",Emax [1] [%],Emax [%]
"CCN(C)S(=O)(=O)Nc1ccc(F)c(Oc2ccc3ncn([C@H]4COC5(CCN(C(=O)CN6CCC(c7ccc(NC8CCC(=O)NC8=O)c(F)c7)CC6)CC5)C4)c(=O)c3c2)c1C#N (stereo partly drawn) [Example 54, (3R)-3-[6-[2-cyano-3-[[ethyl(methyl)sulfamoyl]amino]-6-fluorophenoxy]-4-oxoquinazolin-3-yl]-8-[2-[4-[4-[(2,6-dioxopiperidin-3-yl)amino]-3-fluorophenyl]piperidin-1-yl]acetyl]-1-oxa-8-azaspiro[4.5]decane]",15.4,–,12.1
"CCN(C)S(=O)(=O)Nc1ccc(F)c(Oc2ccc3ncn([C@H]4CCC5(CCN(C(=O)CN6CCN(c7ccc(C8CCC(=O)NC8=O)cc7F)CC6)CC5)C4)c(=O)c3c2)c1C#N (stereo partly drawn) [Example 55, 6-[2-cyano-3-[[ethyl(methyl)sulfamoyl]amino]-6-fluorophenoxy]-3-[(3S)-8-[2-[4-[4-(2,6-dioxopiperidin-3-yl)-2-fluorophenyl]piperazin-1-yl]acetyl]-8-azaspiro[4.5]decan-3-yl]-4-oxoquinazoline]",30,14.7,–
"CCN(C)S(=O)(=O)Nc1ccc(F)c(Oc2ccc3ncn(C4COC5(CCN(C(=O)CN6CCC(c7ccc(NC8CCC(=O)NC8=O)cc7F)CC6)CC5)C4)c(=O)c3c2C)c1C#N (centres unmarked) [Example 59, 3-[6-[2-cyano-3-[[ethyl(methyl)sulfamoyl]amino]-6-fluorophenoxy]-5-methyl-4-oxoquinazolin-3-yl]-8-[2-[4-[4-[(2,6-dioxopiperidin-3-yl)amino]-2-fluorophenyl]piperidin-1-yl]acetyl]-1-oxa-8-azaspiro[4.5]decane]",56,10.4,–
"CCN(C)S(=O)(=O)Nc1ccc(F)c(Oc2ccc3ncn([C@H]4COC5(CCN(C(=O)CN6CCN(c7ccc(C8CCC(=O)NC8=O)cc7F)CC6)CC5)C4)c(=O)c3c2)c1C#N (stereo partly drawn) [Example 60, (3R)-3-[6-[2-cyano-3-[[ethyl(methyl)sulfamoyl]amino]-6-fluorophenoxy]-4-oxoquinazolin-3-yl]-8-[2-[4-[4-(2,6-dioxopiperidin-3-yl)-2-fluorophenyl]piperazin-1-yl]acetyl]-1-oxa-8-azaspiro[4.5]decane]",40.5,13,–

# Further lines, with some results ahead:
"DC50 (A375.10 cells, 24 h) [nM]",Emax [1] [%],Compound,Emax [%]
31.6,11.6,"N#Cc1c(NS(=O)(=O)C2CCCC2)ccc(F)c1Oc1ccc2ncn([C@H]3COC4(CCN(C(=O)CN5CCC(c6ccc(NC7CCC(=O)NC7=O)cc6F)CC5)CC4)C3)c(=O)c2c1 (stereo partly drawn) [Example 56, N-[2-cyano-3-[3-[(3R)-8-[2-[4-[4-[(2,6-dioxopiperidin-3-yl)amino]-2-fluorophenyl]piperidin-1-yl]acetyl]-1-oxa-8-azaspiro[4.5]decan-3-yl]-4-oxoquinazolin-6-yl]oxy-4-fluorophenyl]cyclopentanesulfonamide]",–
20.9,11.5,"CCN(C)S(=O)(=O)Nc1ccc(F)c(Oc2ccc3ncn(C4CCC5(CCN(C(=O)CN6CCC(c7ccc(NC8CCC(=O)NC8=O)cc7F)CC6)CC5)C4)c(=O)c3c2C)c1C#N (centres unmarked) [Example 57, 6-[2-cyano-3-[[ethyl(methyl)sulfamoyl]amino]-6-fluorophenoxy]-3-[8-[2-[4-[4-[(2,6-dioxopiperidin-3-yl)amino]-2-fluorophenyl]piperidin-1-yl]acetyl]-8-azaspiro[4.5]decan-3-yl]-5-methyl-4-oxoquinazoline]",–
45.3,13.9,"CCN(C)S(=O)(=O)Nc1ccc(F)c(Oc2ccc3ncn([C@H]4COC5(CCN(C(=O)CN6CCC(c7ccc(NC8CCC(=O)NC8=O)cc7F)C(F)(F)C6)CC5)C4)c(=O)c3c2)c1C#N (stereo partly drawn) [Example 58, (3R)-3-[6-[2-cyano-3-[[ethyl(methyl)sulfamoyl]amino]-6-fluorophenoxy]-4-oxoquinazolin-3-yl]-8-[2-[4-[4-[(2,6-dioxopiperidin-3-yl)amino]-2-fluorophenyl]-3,3-difluoropiperidin-1-yl]acetyl]-1-oxa-8-azaspiro[4.5]decane]",–
